This is an account of results in US20230242532A1, “TETRACYCLIC PYRIMIDINONE COMPOUND, PREPARATION METHOD THEREFOR, AND COMPOSITION AND USE THEREOF” (NEUSCO BIOTECH LIMITED, priority 2019, published 2023).

Assay [1] deals with T1, recombinant human Lp-PLA2 enzyme (Homo sapiens, UniProt Q13093).
T1 sequence (Q13093 22-441): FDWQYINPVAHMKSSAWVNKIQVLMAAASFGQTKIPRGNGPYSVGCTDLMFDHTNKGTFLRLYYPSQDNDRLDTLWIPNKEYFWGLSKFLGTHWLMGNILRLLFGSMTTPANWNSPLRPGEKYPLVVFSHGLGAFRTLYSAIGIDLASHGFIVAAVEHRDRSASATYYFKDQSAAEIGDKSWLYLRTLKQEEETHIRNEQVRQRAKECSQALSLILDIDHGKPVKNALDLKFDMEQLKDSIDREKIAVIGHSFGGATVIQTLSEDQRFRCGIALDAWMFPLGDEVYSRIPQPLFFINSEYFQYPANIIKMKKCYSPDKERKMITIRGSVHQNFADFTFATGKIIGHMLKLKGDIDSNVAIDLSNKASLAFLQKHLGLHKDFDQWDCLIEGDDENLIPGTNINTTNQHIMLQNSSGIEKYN
The assay is described as follows: Recombinant human Lp-PLA2 assay (rhLp-PLA2), PED6 assay. In kind it is biochemical. As to the method:
(1) Recombinant Human Lp-PLA2 Assay (rhLp-PLA2), Also Referred to as PED6 Assay
PED6 was a fluorescently-labeled phospholipid that could be purchased dorectly from Invitogene or Molecular Probes. […] Once cleaved by the Lp-PLA2 enzyme, it would release the FL group, resulting in enhanced fluorescence.
Assay Method: The compound to be tested (as shown in Table 1) was mixed with a DMSO solution in a volume ratio of 1:3, and diluted to prepare a source plate of a 384-well microplate. Then 0.01 μl of the compound was transferred via an ECHO liquid dispenser from the source plate to a 384-well Greiner 784076 plate, and 5 μl of a buffer consisting of 50 mM HEPES, pH7.4, 150 mM NaCl, and 1 mM CHAPS (the buffer solution containing a recombinant human Lp-PLA2 enzyme at a concentration of 4 nM or 110 pM) was added to each well of the plate. The plate was centrifuged at 500 rpm for 10 seconds. After a 30-min pre-incubation, 5 μl of the above-mentioned buffer was added to a 384-well Greiner 784076 plate, the plate was centrifuged at 500 rpm for 10 seconds.

The target of assay [2] is T2, Lp-PLA2 enzyme in human plasma (Homo sapiens, UniProt Q13093).
T2 construct: from tissue; host or cells: mixed (pooled) human plasma
T2 sequence (Q13093 22-441): T1 sequence (Q13093 22-441)
Kind of assay: Assay of Lp-PLA2 in human plasma (Thio-PAF assay). Format: biochemical. On the procedure:
(2) Assay of Lp-PLA2 in Human Plasma (Also Referred to as Thio-PAF Assay)
The human plasma assay was conducted using the sulphatide analog of PAF (phosphatidylcholine). After hydrolysis, it would generate phospholipids containing free sulfhydryl groups, which would be subjected to Michael addition with CPM to generate fluorescence-enhancing maleimide. Continuous quantitative analysis of thiol could be conducted by detecting the fluorescence intensity. This assay could be used to detect the inhibitory activity of the Lp-PLA2 inhibitor on the Lp-PLA2 enzyme in human plasma.
Assay Method: The compound to be tested (as shown in Table 2) was mixed with a DMSO solution in a volume ratio of (1:3), and diluted to prepare a source plate of a 384-well microplate. Then 0.01 μl of the compound was transferred via an ECHO liquid dispenser from the source plate to a 384-well Greiner 784076 plate, and 8 μl of pre-aliquoted and frozen mixed human plasma was then added. The plate was centrifuged at 500 rpm for 10 seconds. After a 30-min pre-incubation, 2 μl of a substrate solution, and a buffer containing 2.5 mM 2-thio-PAF (a solution in ethanol), 32 μM CPM (a solution in DMSO) and 3.2 mM N-ethylmaleimide (NEM) (a buffer solution consisting of 50 mM HEPES, pH7.4, 150 mM NaCl, 1 mM CHAPS) was added by a BRAVO liquid handling station to a 384-well Greiner 784076 low-volume plate. Two minutes later, the reaction was quenched with 5 μl of 5% trifluoroacetic acid. After the plate was incubated at room temperature for 40 min in a dark place, the fluorescence intensity was read at ex 380/em 485 with an Envision microplate reader, and the XL fitting model in Excel was used to perform the curve analysis and QC analysis to calculate pIC50.

[3] abbreviates: PED6 substrate, recombinant human Lp-PLA2 at 4 nM or 110 pM, 30-min pre-incubation, fluorescence ex 480/em 540, read-out: rhLp-PLA2 (pIC50) (converted).
[4] abbreviates: mixed human plasma, 2-thio-PAF substrate with CPM, 30-min pre-incubation, fluorescence ex 380/em 485, read-out: Thio-PAF (pIC50) (converted).

Like-named read-outs stand apart in the source and are kept apart here.

For `O=c1nc(OCc2cc(F)c(Oc3ccc(OC(F)(F)F)c(Cl)c3)c(F)c2)cc2n1CC13CCC(CC1)N23` [Compound 17], the IC50 in assay [1] (setting [3]) is 0.0794 nM; in assay [2] (setting [4]) it was 10 nM.
The like results for `Cc1cc(Oc2c(F)cc(COc3cc4n(c(=O)n3)CC35CCC(CC3)N45)cc2F)ccn1` [Compound 7] were, in that order, 0.0398 nM and 3.16 nM.
In the same order, the values of `O=c1nc(OCc2cc(F)c(Oc3ccnc(C(F)(F)F)c3)c(F)c2)cc2n1CC13CCC(CC1)N23` [Compound 4] are 0.0398 nM and 3.98 nM.
In the same order, the values of `O=c1nc(OCc2cc(F)c(Oc3cnc(C(F)(F)F)nc3)c(F)c2)cc2n1CC13CCC(CC1)N23` [Compound 13] are 0.251 nM and 20 nM.
For `O=c1nc(OCc2cc(F)c(Oc3ccnc(C(F)(F)F)c3)c(F)c2)cc2n1CC13CCCC(CC1)N23` (stereo not drawn) [Compound 18], the IC50 was 0.1 nM in assay [1] (setting [3]) and 7.94 nM in assay [2] (setting [4]).
In the same order, the values of `O=c1nc(OCc2cc(F)c(Oc3ccc(C(F)(F)F)c(Cl)c3)c(F)c2)cc2n1CC13CCC(CC1)N23` [Compound 14] are 0.0794 nM and 7.94 nM.
With `Cc1ccc(Oc2c(F)cc(COc3cc4n(c(=O)n3)CC35CCC(CC3)N45)cc2F)cn1` [Compound 8], the values for the IC50 in assay [1] (setting [3]) and in assay [2] (setting [4]) were 0.0316 nM and 7.94 nM, respectively.
As to `O=c1nc(OCc2cccc(F)c2F)cc2n1CC13CCC(CC1)N23` [Compound 1], the IC50 is 2.51 nM in assay [1] and 100 nM in assay [2].
In the case of `O=c1nc(OCc2cc(F)c(Oc3ccc(C(F)(F)F)nc3)c(F)c2)cc2n1CC13CCC(CC1)N23` [Compound 6], the values for the IC50 in assay [1] (setting [3]) and in assay [2] (setting [4]) were 0.0501 nM and 7.94 nM, respectively.
In the same order, the values of `O=c1nc(OCc2cc(F)c(Oc3cccc(C(F)(F)F)c3)c(F)c2)cc2n1CC13CCC(CC1)N23` [Compound 11] are 0.0794 nM and 12.6 nM.
Turning to `O=c1nc(OCc2ccc(F)c(F)c2)cc2n1CC13CCC(CC1)N23` [Compound 3], the IC50 was 0.501 nM in assay [1] and 15.8 nM in assay [2].
On to `O=c1nc(OCc2cc(F)c(Oc3ccc(C(F)(F)F)cc3)c(F)c2)cc2n1CC13CCC(CC1)N23` [Compound 5], for which the IC50 in assay [1] (setting [3]) is 0.0316 nM; in assay [2] (setting [4]) it was 6.31 nM.
As for `Cc1ncc(Oc2c(F)cc(COc3cc4n(c(=O)n3)CC35CCC(CC3)N45)cc2F)cn1` [Compound 9], the IC50 is 0.1 nM in assay [1] (setting [3]) and 12.6 nM in assay [2] (setting [4]).
In the same order, the values of `O=c1nc(OCc2cc(F)c(Oc3cccc(OC(F)(F)F)c3)c(F)c2)cc2n1CC13CCC(CC1)N23` [Compound 16] are 0.1 nM and 12.6 nM.
With `Cc1cc(Oc2c(F)cc(COc3cc4n(c(=O)n3)CC35CCC(CC3)N45)cc2F)ccc1Cl` [Compound 12], the values for the IC50 in assay [1] (setting [3]) and in assay [2] (setting [4]) were 0.0794 nM and 10 nM, respectively.
For the molecule `O=c1nc(OCc2ccc(F)cc2)cc2n1CC13CCC(CC1)N23` [Compound 2], the IC50 was 0.794 nM in assay [1] and 25.1 nM in assay [2].
As for `O=c1nc(OCc2cc(F)c(Oc3ccc(Cl)c(C(F)(F)F)c3)c(F)c2)cc2n1CC13CCC(CC1)N23` [Compound 10], the IC50 in assay [1] (setting [3]) is 0.0631 nM; in assay [2] (setting [4]) it was 7.94 nM.
Take `Cc1ncc(Oc2c(F)cc(COc3cc4n(c(=O)n3)CC35CCCC(CC3)N45)cc2F)cn1` (stereo not drawn) [Compound 19]: the IC50 in assay [1] (setting [3]) is 0.316 nM; in assay [2] (setting [4]), 15.8 nM.
